“And” between values parts separate entries of the source, which are not always exact repeats. Equal entries are not always repeated. Inconclusive results and toxic doses are left out. Square brackets hold non-standard residues; d marks the D form. Peptide text beside a SMILES is read from it. * marks the point of attachment. ξ: configuration not given here. Cbz = O=C(OCc1ccccc1)*; ξI = CCC(C)C(N)C(=O)O
Test system: P388 leukemia ip, CD2F1 mice, survival T/C
Assay: NCI In Vivo Anticancer Drug Screen. Data for tumor model P388 Leukemia (intraperitoneal) in CD2F1 (CDF1) mice
Conditions: endpoint: median survival time, higher = longer survival
Method in brief: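 Mice carrying the transplanted tumor received test compound or vehicle. Survival was recorded in each group, and the value is the treated-group measurement divided by that of the vehicle-treated control group.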

[1] = dose: 50.0 mg/kg/injection, schedule: Q01DX005 (ip), vehicle: saline with Tween-80
[2] = dose: 100.0 mg/kg/injection, schedule: Q01DX005 (ip), vehicle: saline with Tween-80
[3] = dose: 50.0 mg/kg/injection, schedule: Q01DX009 (ip), vehicle: Klucel (hydroxypropylcellulose) (HPC)
[4] = dose: 100.0 mg/kg/injection, schedule: Q01DX009 (ip), vehicle: Klucel (hydroxypropylcellulose) (HPC)
[5] = dose: 200.0 mg/kg/injection, schedule: Q01DX009 (ip), vehicle: Klucel (hydroxypropylcellulose) (HPC)
[6] = dose: 50.0 mg/kg/injection, schedule: Q01DX009 (ip), vehicle: saline with Tween-80
[7] = dose: 100.0 mg/kg/injection, schedule: Q01DX009 (ip), vehicle: saline with Tween-80
[8] = dose: 50.0 mg/kg/injection, schedule: Q01DX005 (ip), vehicle: saline
[9] = dose: 100.0 mg/kg/injection, schedule: Q01DX005 (ip), vehicle: saline
[10] = dose: 100.0 mg/kg/injection, schedule: Q04DX003 (ip), vehicle: saline with Tween-80
[11] = dose: 200.0 mg/kg/injection, schedule: Q04DX003 (ip), vehicle: saline with Tween-80
[12] = dose: 400.0 mg/kg/injection, schedule: Q04DX003 (ip), vehicle: saline with Tween-80
[13] = dose: 50.0 mg/kg/injection, schedule: Q01DX005 (ip), vehicle: Klucel (hydroxypropylcellulose) (HPC)
[14] = dose: 100.0 mg/kg/injection, schedule: Q01DX005 (ip), vehicle: Klucel (hydroxypropylcellulose) (HPC)
[15] = dose: 200.0 mg/kg/injection, schedule: Q01DX005 (ip), vehicle: Klucel (hydroxypropylcellulose) (HPC)

C=CCNC(=S)N/N=C(/c1ccccn1)C(C)C
T/C [1]: 103 % of control
T/C [2]: 109 % of control

CC1(C)OP2(O)(OC(C)(C)c3ccccc32)c2ccccc21
T/C [3]: 99 % of control
T/C [4]: 102 % of control
T/C [5]: 104 % of control

C#CCOC(=O)C1CCCCC1
T/C [6]: 110 % of control
T/C [7]: 110 % of control
T/C (dose: 200.0 mg/kg/injection, schedule: Q01DX009 (ip), vehicle: saline with Tween-80): 112 % of control

C[N+](C)(Cc1cccc(Cl)c1)c1nnn[n-]1
T/C (dose: 100.0 mg/kg/injection, schedule: Q04DX003 (ip), vehicle: Klucel (hydroxypropylcellulose) (HPC)): 98 % of control
T/C (dose: 200.0 mg/kg/injection, schedule: Q04DX003 (ip), vehicle: Klucel (hydroxypropylcellulose) (HPC)): 101 % of control
T/C (dose: 400.0 mg/kg/injection, schedule: Q04DX003 (ip), vehicle: Klucel (hydroxypropylcellulose) (HPC)): 107 % of control

Cn1ccc(=Nc2ccc(NC(=O)c3ccc(N=c4ccn(C)c5ccc([N+](=O)[O-])cc45)cc3)cc2)cc1
T/C (dose: 3.13 mg/kg/injection, schedule: Q01DX009 (ip), vehicle: other): 160 % of control
T/C (dose: 6.25 mg/kg/injection, schedule: Q01DX009 (ip), vehicle: other): 188 % of control
T/C (dose: 12.5 mg/kg/injection, schedule: Q01DX009 (ip), vehicle: other): 182 % of control
T/C (dose: 25.0 mg/kg/injection, schedule: Q01DX009 (ip), vehicle: other): 179 % of control and 220 % of control
T/C (dose: 50.0 mg/kg/injection, schedule: Q01DX009 (ip), vehicle: other): 168 % of control
T/C (dose: 100.0 mg/kg/injection, schedule: Q01DX009 (ip), vehicle: other): 97 % of control

O=S(=O)(/N=C/c1ccccc1)c1ccc(Cl)cc1
T/C (dose: 12.5 mg/kg/injection, schedule: Q01DX009 (ip), vehicle: saline with Tween-80): 101 % of control
T/C (dose: 25.0 mg/kg/injection, schedule: Q01DX009 (ip), vehicle: saline with Tween-80): 101 % of control
T/C [6]: 95 % of control
T/C [7]: 96 % of control

CCN(CC)CCNC(c1ccc(OC)cc1)C(Cl)(Cl)Cl (centres undefined)
T/C (dose: 60.0 mg/kg/injection, schedule: Q01DX005 (ip), vehicle: saline): 94 % of control
T/C (dose: 120.0 mg/kg/injection, schedule: Q01DX005 (ip), vehicle: saline): 94 % of control

C=CC(C)(CCC=C(C)C)ON(C)C (centres undefined)
T/C (dose: 100.0 mg/kg/injection, schedule: Q04DX002 (ip), vehicle: saline with Tween-80): 100 % of control

CN(C)CCNC1c2ccccc2CCc2ccccc21
T/C [8]: 104 % of control
T/C [9]: 100 % of control

COc1cc(-c2ccc(NC(=O)CC(C)=O)c(OC)c2)ccc1NC(=O)CC(C)=O
T/C [10]: 100 % of control
T/C [11]: 100 % of control
T/C [12]: 90 % of control

COc1ccc([N+](=O)[O-])cc1NC(=O)c1ccc2c(c1)C(=O)OC2=O
T/C (dose: 7.5 mg/kg/injection, schedule: Q01DX005 (ip), vehicle: saline with Tween-80): 97 % of control
T/C (dose: 15.0 mg/kg/injection, schedule: Q01DX005 (ip), vehicle: saline with Tween-80): 87 % of control
T/C (dose: 30.0 mg/kg/injection, schedule: Q01DX005 (ip), vehicle: saline with Tween-80): 90 % of control and 94 % of control
T/C (dose: 60.0 mg/kg/injection, schedule: Q01DX005 (ip), vehicle: saline with Tween-80): 89 % of control
T/C (dose: 240.0 mg/kg/injection, schedule: Q01DX005 (ip), vehicle: saline with Tween-80): 93 % of control

O=[N+]([O-])c1ccc(N2C(c3ccccc3)=N[C@@H](N3CCOCC3)[C@@H]2N2CCOCC2)cc1
T/C [13]: 101 % of control
T/C [14]: 97 % of control
T/C [15]: 95 % of control

CCCCN1CSC2CCCCC21 (centres undefined)
T/C (dose: 25.0 mg/kg/injection, schedule: Q01DX005 (ip), vehicle: saline): 98 % of control
T/C [8]: 111 % of control and 93 % of control
T/C [9]: 104 % of control and 111 % of control
T/C (dose: 200.0 mg/kg/injection, schedule: Q01DX005 (ip), vehicle: saline): 121 % of control

COc1ccccc1NC(=O)C1=C(C)NC(C)=C(C(=O)Nc2ccccc2OC)C1c1cccc([N+](=O)[O-])c1
T/C (dose: 60.0 mg/kg/injection, schedule: Q01DX005 (ip), vehicle: Klucel (hydroxypropylcellulose) (HPC)): 92 % of control
T/C (dose: 120.0 mg/kg/injection, schedule: Q01DX005 (ip), vehicle: Klucel (hydroxypropylcellulose) (HPC)): 88 % of control

N#Cc1c(C(F)(F)F)cc(-c2cccs2)nc1SC(C(=O)Nc1cc(C(F)(F)F)cc(C(F)(F)F)c1)c1ccccc1 (centres undefined)
T/C [13]: 106 % of control
T/C [14]: 88 % of control
T/C [15]: 90 % of control

CCC(C)C(NC(=O)CNC(=O)CNC(=O)OCc1ccccc1)C(=O)O (stereo not drawn) (Cbz-Gly-Gly-[ξI]-OH)
T/C [1]: 103 % of control
T/C [2]: 100 % of control
T/C (dose: 200.0 mg/kg/injection, schedule: Q01DX005 (ip), vehicle: saline with Tween-80): 102 % of control

CCC(c1ccc(OC)cc1)C(NCC(=O)N/N=C1/C=C2CC[C@H]3[C@@H]4CC[C@H](O)[C@@]4(C)CC[C@@H]3[C@@]2(C)CC1)c1ccc(OC)cc1 (some centres undefined)
T/C (dose: 100.0 mg/kg/injection, schedule: Q01DX001 (ip), vehicle: saline with Tween-80): 100 % of control
T/C (dose: 200.0 mg/kg/injection, schedule: Q01DX001 (ip), vehicle: saline with Tween-80): 110 % of control
T/C (dose: 400.0 mg/kg/injection, schedule: Q01DX001 (ip), vehicle: saline with Tween-80): 107 % of control

O=C(O)C1CCCN1C(=O)c1ccc(Cl)cc1 (centres undefined)
T/C (dose: 12.5 mg/kg/injection, schedule: Q01DX005 (ip), vehicle: distilled water + Tween-80): 99 % of control
T/C (dose: 25.0 mg/kg/injection, schedule: Q01DX005 (ip), vehicle: distilled water + Tween-80): 101 % of control
T/C (dose: 50.0 mg/kg/injection, schedule: Q01DX005 (ip), vehicle: distilled water + Tween-80): 97 % of control
T/C (dose: 100.0 mg/kg/injection, schedule: Q01DX005 (ip), vehicle: distilled water + Tween-80): 100 % of control
T/C (dose: 200.0 mg/kg/injection, schedule: Q01DX005 (ip), vehicle: distilled water + Tween-80): 104 % of control

CN(CCN(C)C(=S)Cl)C(=S)Cl
T/C [3]: 99 % of control
T/C [4]: 100 % of control
T/C [5]: 96 % of control

COc1ccc(Oc2cc3c[n+](C)ccc3cc2OC)cc1
T/C (dose: 12.5 mg/kg/injection, schedule: Q01DX009 (ip), vehicle: saline): 111 % of control
T/C (dose: 25.0 mg/kg/injection, schedule: Q01DX009 (ip), vehicle: saline): 117 % of control

Cc1ccc(S(=O)(=O)NCCN(C)C)cc1
T/C [3]: 99 % of control
T/C [4]: 99 % of control
T/C [5]: 102 % of control
T/C (dose: 400.0 mg/kg/injection, schedule: Q01DX009 (ip), vehicle: Klucel (hydroxypropylcellulose) (HPC)): 101 % of control

C=C1C(=O)OC2C1CCC(C)=C1CCC(C)(O)C12 (centres undefined)
T/C (dose: 5.0 mg/kg/injection, schedule: Q01DX009 (ip), vehicle: saline with Tween-80): 97 % of control
T/C (dose: 10.0 mg/kg/injection, schedule: Q01DX009 (ip), vehicle: saline with Tween-80): 105 % of control
T/C (dose: 20.0 mg/kg/injection, schedule: Q01DX009 (ip), vehicle: saline with Tween-80): 107 % of control
T/C (dose: 40.0 mg/kg/injection, schedule: Q01DX009 (ip), vehicle: saline with Tween-80): 107 % of control

CCCCCn1c(Cl)c(/C=N\Nc2cccc([N+](=O)[O-])c2)c2ccccc21
T/C [10]: 100 % of control
T/C [11]: 91 % of control
T/C [12]: 90 % of control

CN=C(NN(C)C)c1ccc(NC(=O)c2ccc(C(=O)Nc3ccc(C(=NC)NN(C)C)cc3)cc2)cc1
T/C (dose: 3.3 mg/kg/injection, schedule: Q01DX009 (ip), vehicle: saline with Tween-80): 115 % of control
T/C (dose: 4.3 mg/kg/injection, schedule: Q01DX009 (ip), vehicle: saline with Tween-80): 118 % of control
T/C (dose: 13.2 mg/kg/injection, schedule: Q04DX003 (ip), vehicle: saline with Tween-80): 91 % of control

CCN(CC)Cc1c(O)ccc2c3c(c(=O)oc12)CCCC3
T/C (dose: 8.0 mg/kg/injection, schedule: Q01DX009 (ip), vehicle: Klucel (hydroxypropylcellulose) (HPC)): 101 % of control
T/C (dose: 16.0 mg/kg/injection, schedule: Q01DX009 (ip), vehicle: Klucel (hydroxypropylcellulose) (HPC)): 102 % of control
T/C (dose: 32.0 mg/kg/injection, schedule: Q01DX009 (ip), vehicle: Klucel (hydroxypropylcellulose) (HPC)): 101 % of control

Reference: PubChem BioAssay AID330 (DTP/NCI, 2004)
